The subject of the experiment is P388 leukemia ip, CD2F1 mice, survival T/C. The experiment can be described thus: NCI In Vivo Anticancer Drug Screen. Data for tumor model P388 Leukemia (intraperitoneal) in CD2F1 (CDF1) mice. To be noted: endpoint: median survival time, higher = longer survival. In short, it runs like this: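 Mice carrying the transplanted tumor received test compound or vehicle. Survival was recorded in each group, and the value is the treated-group measurement divided by that of the vehicle-treated control group.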

Setting [1] is: dose: 100.0 mg/kg/injection, schedule: Q01DX009 (ip), vehicle: saline with Tween-80.
Where [2] appears, read: dose: 200.0 mg/kg/injection, schedule: Q01DX009 (ip), vehicle: saline with Tween-80.
Where [3] appears, read: dose: 25.0 mg/kg/injection, schedule: Q01DX009 (ip), vehicle: saline with Tween-80.
Setting [4] is: dose: 50.0 mg/kg/injection, schedule: Q01DX009 (ip), vehicle: saline with Tween-80.
Setting [5] is: dose: 60.0 mg/kg/injection, schedule: Q01DX005 (ip), vehicle: Klucel (hydroxypropylcellulose) (HPC).
Where [6] appears, read: dose: 120.0 mg/kg/injection, schedule: Q01DX005 (ip), vehicle: Klucel (hydroxypropylcellulose) (HPC).
Setting [7] is: dose: 240.0 mg/kg/injection, schedule: Q01DX005 (ip), vehicle: Klucel (hydroxypropylcellulose) (HPC).

Molecules are shown by their SMILES. “And” between values parts separate entries of the source, which are not always exact repeats. Equal values may be shown once. Toxic doses and inconclusive results are not listed.

Here are results for 17 compounds from PubChem BioAssay AID330 (DTP/NCI, 2004).

In the case of `C/C(=N\O)C1(C)CC=CCC1CO` (stereo unspecified), the T/C was 95 % of control under setting [1]; 100 % of control under setting [2]; 100 % of control (dose: 400.0 mg/kg/injection, schedule: Q01DX009 (ip), vehicle: saline with Tween-80).
As for `CN(C)C(=O)CC/C=C/C1C=CCCN1Cc1ccccc1` (stereo unspecified), the T/C reads like this: (dose: 8.75 mg/kg/injection, schedule: Q01DX005 (ip), vehicle: Klucel (hydroxypropylcellulose) (HPC)) 103 % of control; (dose: 17.5 mg/kg/injection, schedule: Q01DX005 (ip), vehicle: Klucel (hydroxypropylcellulose) (HPC)) 100 % of control; (dose: 35.0 mg/kg/injection, schedule: Q01DX005 (ip), vehicle: Klucel (hydroxypropylcellulose) (HPC)) 100 % of control.
Turning to `CC[C@]12CN3CCc4c([nH]c5ccccc45)[C@@](C(=O)OC)(c4cc5c(cc4OC)N(C)[C@H]4[C@@](O)(C(=O)OC)[C@H](OC(C)=O)[C@]6(CC)C=CCN7CC[C@]54[C@@H]76)CC(C3)[C@H]1O2` (stereo partly specified), the T/C runs as follows: (dose: 0.05 mg/kg/injection, schedule: Q01DX009 (ip), vehicle: saline) 101 % of control; (dose: 0.1 mg/kg/injection, schedule: Q01DX009 (ip), vehicle: saline) 104 % of control; (dose: 0.2 mg/kg/injection, schedule: Q01DX009 (ip), vehicle: saline) 104 % of control; (dose: 0.4 mg/kg/injection, schedule: Q01DX009 (ip), vehicle: saline) 103 % of control; (dose: 0.5 mg/kg/injection, schedule: Q01DX001 (ip), vehicle: water) 104 % of control; (dose: 0.75 mg/kg/injection, schedule: Q01DX009 (ip), vehicle: saline) 114 % of control. In addition, the T/C runs as follows: (dose: 0.8 mg/kg/injection, schedule: Q01DX009 (ip), vehicle: saline) 107 % of control; (dose: 1.0 mg/kg/injection, schedule: Q01DX001 (ip), vehicle: water) 95 % of control; (dose: 1.6 mg/kg/injection, schedule: Q01DX009 (ip), vehicle: saline) 113 % of control; (dose: 2.0 mg/kg/injection, schedule: Q01DX001 (ip), vehicle: water) 108 % of control; (dose: 3.0 mg/kg/injection, schedule: Q01DX009 (ip), vehicle: saline) 117 % of control; (dose: 3.2 mg/kg/injection, schedule: Q01DX009 (ip), vehicle: saline) 110 % of control. For the same compound, the T/C reads like this: (dose: 4.0 mg/kg/injection, schedule: Q01DX001 (ip), vehicle: water) 116 % of control; (dose: 6.0 mg/kg/injection, schedule: Q01DX009 (ip), vehicle: saline sonified) 173 % of control; (dose: 6.0 mg/kg/injection, schedule: Q01DX009 (ip), vehicle: saline) 156 % of control and 160 % of control; (dose: 6.4 mg/kg/injection, schedule: Q01DX009 (ip), vehicle: saline) 120 % of control; (dose: 8.0 mg/kg/injection, schedule: Q01DX001 (ip), vehicle: water) 122 % of control; (dose: 12.0 mg/kg/injection, schedule: Q01DX009 (ip), vehicle: saline sonified) 121 % of control. In addition, the T/C is, setting by setting: (dose: 12.0 mg/kg/injection, schedule: Q01DX009 (ip), vehicle: saline) 176 % of control and 220 % of control; (dose: 24.0 mg/kg/injection, schedule: Q01DX009 (ip), vehicle: saline) 117 % of control.
As to `CC(O)c1ccc(C(C)O)cc1` (stereo unspecified), the T/C runs as follows: (dose: 50.0 mg/kg/injection, schedule: Q01DX009 (ip), vehicle: saline) 91 % of control; (dose: 100.0 mg/kg/injection, schedule: Q01DX009 (ip), vehicle: saline) 86 % of control; (dose: 200.0 mg/kg/injection, schedule: Q01DX009 (ip), vehicle: saline) 96 % of control.
With `NC(=O)c1cccn1Cc1ccccc1SSc1ccccc1Cn1cccc1C(N)=O`, the T/C by setting is: (dose: 60.0 mg/kg/injection, schedule: Q01DX005 (ip), vehicle: saline with Tween-80) 91 % of control; (dose: 120.0 mg/kg/injection, schedule: Q01DX005 (ip), vehicle: saline with Tween-80) 87 % of control.
With `CN(C)CCC(=O)c1ccc([N+](=O)[O-])cc1`, the T/C under setting [3] was 94 % of control, the T/C under setting [4] is 113 % of control, the T/C under setting [1] was 108 % of control and the T/C under setting [2] is 106 % of control.
Turning to `COc1cc(C(=O)n2ncc(C(C)=O)c2C)cc(OC)c1OC`, the T/C is 103 % of control under setting [4], 106 % of control under setting [1] and 116 % of control under setting [2].
In the case of `CC(=O)Nc1c(Cl)nc2cc(N(C)C)ccc2c1Cl`, the T/C (dose: 60.0 mg/kg/injection, schedule: Q01DX005 (ip), vehicle: Klucel + Tween-80) was 97 % of control; the T/C (dose: 120.0 mg/kg/injection, schedule: Q01DX005 (ip), vehicle: Klucel + Tween-80) is 96 % of control; the T/C (dose: 240.0 mg/kg/injection, schedule: Q01DX005 (ip), vehicle: Klucel + Tween-80) was 97 % of control.
For the compound `CS(=O)(=O)OCCN(CCOS(C)(=O)=O)c1ccc(N=Nc2ccccc2)cc1`, the T/C runs as follows: (dose: 12.5 mg/kg/injection, schedule: Q01DX009 (ip), vehicle: saline with Tween-80) 156 % of control and 176 % of control; under setting [3], 160 % of control.
Regarding `COc1ccc(-n2c(O)c(N=Nc3nc4ccc([N+](=O)[O-])cc4s3)c(=O)n(-c3ccccc3)c2=S)cc1`, the T/C under setting [5] is 103 % of control, the T/C under setting [6] is 100 % of control and the T/C under setting [7] is 91 % of control.
As to `c1ccc(Cn2cccc/c2=N/C(=NC2CCCCC2)NC2CCCCC2)cc1`, the T/C (dose: 1.56 mg/kg/injection, schedule: Q01DX001 (ip), vehicle: Klucel (hydroxypropylcellulose) (HPC)) is 105 % of control; the T/C (dose: 3.12 mg/kg/injection, schedule: Q01DX001 (ip), vehicle: Klucel (hydroxypropylcellulose) (HPC)) was 99 % of control; the T/C (dose: 6.25 mg/kg/injection, schedule: Q01DX001 (ip), vehicle: Klucel (hydroxypropylcellulose) (HPC)) is 99 % of control; the T/C (dose: 25.0 mg/kg/injection, schedule: Q01DX001 (ip), vehicle: Klucel (hydroxypropylcellulose) (HPC)) is 98 % of control.
`CCOC(=O)Cc1nnc(N)s1`: the T/C (dose: 50.0 mg/kg/injection, schedule: Q04DX003 (ip), vehicle: saline) was 94 % of control; the T/C (dose: 100.0 mg/kg/injection, schedule: Q04DX003 (ip), vehicle: saline) is 95 % of control; the T/C (dose: 200.0 mg/kg/injection, schedule: Q04DX003 (ip), vehicle: saline) is 110 % of control; the T/C (dose: 400.0 mg/kg/injection, schedule: Q04DX003 (ip), vehicle: saline) is 104 % of control.
As to `CSC(=N/O)/C(=N\O)SC`, the T/C (dose: 12.5 mg/kg/injection, schedule: Q01DX009 (ip), vehicle: Klucel (hydroxypropylcellulose) (HPC)) was 107 % of control; the T/C (dose: 25.0 mg/kg/injection, schedule: Q01DX009 (ip), vehicle: Klucel (hydroxypropylcellulose) (HPC)) is 99 % of control; the T/C (dose: 50.0 mg/kg/injection, schedule: Q01DX009 (ip), vehicle: Klucel (hydroxypropylcellulose) (HPC)) is 100 % of control and 102 % of control; the T/C (dose: 200.0 mg/kg/injection, schedule: Q01DX009 (ip), vehicle: Klucel (hydroxypropylcellulose) (HPC)) was 89 % of control.
`COc1ccc(/C=N/NC(=O)c2ccc(OCc3nc4ccccc4[nH]3)cc2)cc1`: the T/C is 100 % of control (dose: 25.0 mg/kg/injection, schedule: Q01DX005 (ip), vehicle: saline with Tween-80); 105 % of control (dose: 50.0 mg/kg/injection, schedule: Q01DX005 (ip), vehicle: saline with Tween-80); 100 % of control (dose: 100.0 mg/kg/injection, schedule: Q01DX005 (ip), vehicle: saline with Tween-80); 100 % of control (dose: 200.0 mg/kg/injection, schedule: Q01DX005 (ip), vehicle: saline with Tween-80).
With `CC1(C)OCC(C2OC3OC(C)(C)OC3C2N2CCC(O)O2)O1` (stereo unspecified), the T/C is, setting by setting: (dose: 97.75 mg/kg/injection, schedule: Q04DX002 (ip), vehicle: saline) 103 % of control; (dose: 195.5 mg/kg/injection, schedule: Q04DX002 (ip), vehicle: saline) 109 % of control; (dose: 391.0 mg/kg/injection, schedule: Q04DX002 (ip), vehicle: saline) 105 % of control.
`O=C1OCC/C1=C\NCCCCCCCCN/C=C1\CCOC1=O`: the T/C by setting is: under setting [5], 97 % of control; under setting [6], 102 % of control; under setting [7], 105 % of control.
As for `COC(=O)c1ccc(C(=O)OC)c2nn3c(N)nnc3nc12`, the T/C (dose: 60.0 mg/kg/injection, schedule: Q01DX005 (ip), vehicle: saline) was 110 % of control; the T/C (dose: 120.0 mg/kg/injection, schedule: Q01DX005 (ip), vehicle: saline) was 100 % of control; the T/C (dose: 240.0 mg/kg/injection, schedule: Q01DX005 (ip), vehicle: saline) was 100 % of control.
